Experiments:
[1] = biological target: T1, Thyroid hormone receptor alpha (Homo sapiens, UniProt P10827); assay: Binding affinity towards thyroid hormone receptor (hTR alpha 1)
T1 sequence (P10827 whole entry): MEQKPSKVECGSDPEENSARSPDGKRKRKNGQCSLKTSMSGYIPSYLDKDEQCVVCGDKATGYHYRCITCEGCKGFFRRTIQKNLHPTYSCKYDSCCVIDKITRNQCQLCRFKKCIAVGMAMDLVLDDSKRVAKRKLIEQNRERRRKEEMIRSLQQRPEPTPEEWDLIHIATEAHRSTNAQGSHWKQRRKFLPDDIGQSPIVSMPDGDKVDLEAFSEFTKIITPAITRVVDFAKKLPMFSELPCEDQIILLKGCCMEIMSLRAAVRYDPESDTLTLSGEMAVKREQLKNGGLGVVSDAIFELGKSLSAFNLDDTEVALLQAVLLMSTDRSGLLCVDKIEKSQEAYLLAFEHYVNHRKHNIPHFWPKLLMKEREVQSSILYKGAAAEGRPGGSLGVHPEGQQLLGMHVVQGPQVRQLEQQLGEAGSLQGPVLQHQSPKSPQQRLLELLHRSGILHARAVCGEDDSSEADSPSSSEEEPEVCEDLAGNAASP

[2] = biological target: T2, Thyroid hormone receptor beta (Homo sapiens, UniProt P10828); assay: Binding affinity towards thyroid hormone receptor (hTR beta 1)
T2 sequence (P10828 whole entry): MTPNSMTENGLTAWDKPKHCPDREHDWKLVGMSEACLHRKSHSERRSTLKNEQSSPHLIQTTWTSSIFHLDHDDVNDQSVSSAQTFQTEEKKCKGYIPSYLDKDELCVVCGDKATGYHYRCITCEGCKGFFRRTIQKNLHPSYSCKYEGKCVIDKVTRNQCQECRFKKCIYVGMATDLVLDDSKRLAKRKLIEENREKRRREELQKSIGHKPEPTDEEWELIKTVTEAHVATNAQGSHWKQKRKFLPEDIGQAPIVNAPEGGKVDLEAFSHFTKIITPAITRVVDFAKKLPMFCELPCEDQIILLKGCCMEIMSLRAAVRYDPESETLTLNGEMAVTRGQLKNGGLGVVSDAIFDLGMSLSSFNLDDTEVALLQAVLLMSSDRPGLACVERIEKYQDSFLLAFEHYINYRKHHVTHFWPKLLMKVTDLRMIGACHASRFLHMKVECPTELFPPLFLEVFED

Compound	Kd [1] [µM]	Kd [2] [µM]
CCCCN(C)C(=O)CCCCCC/C=C\CCC(c1ccc(O)c(C(C)C)c1)c1c(C)cc(OCC(=O)O)cc1C (stereo not given)	0.24	0.72
CCCCN(C)C(=O)CCCCCCCCCCC(c1ccc(O)c(C(C)C)c1)c1c(C)cc(OCC(=O)O)cc1C (stereo not given)	0.112	0.148
COc1ccc(C(c2ccc(O)c(C(C)C)c2)c2c(C)cc(OCC(=O)O)cc2C)c(OC)c1 (stereo not given)	1.4	4.2
C=CCC(c1ccc(O)c(C(C)C)c1)c1c(C)cc(OCC(=O)O)cc1C (stereo not given)	0.43	0.09
Cc1cc(OCC(=O)O)cc(C)c1C(CCCO)c1ccc(O)c(C(C)C)c1 (stereo not given)	1.4	3.6

From ChEMBL document CHEMBL1134818, “A designed antagonist of the thyroid hormone receptor” (Bioorg Med Chem Lett, 2001)
